These results are taken from PubChem BioAssay AID1918953 (Molecular Pharmacology Branch, DTP, NCI, 2023).

Molecules are shown by their SMILES. “And” between values parts separate entries of the source, which are not always exact repeats. Equal values may be shown once.

This assay deals with MDA-MB-231 complex spheroid viability. Put plainly: Anticancer human tumor MDA-MB-231/ATCC cell line growth inhibition.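 As to all read-outs here: drug exposure lasted 7 days starting on day 3 of spheroid growth.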 As to conditions: for viability, T/C: stronger effect = lower value. The source says: Multicellular complex tumor spheroid response to LSD1 Inhibitor Iadademstat in combination with a variety of drugs and investigational agents in selected tumor cell lines
The current study was undertaken to assess response to LSD1 inhibitors in combination with standard-of-care drugs and investigational agents in solid tumor complex spheroid models as well as in the K-562 leukemia. Complex spheroids include a stromal component modeled by human endothelial cells (HUVEC) and fibroblasts modeled by human mesenchymal stem cells (MSCs). The concentration ranges selected for each drug and investigational agent were based upon clinically achievable concentrations if the clinical Cmax of the agent was known.
Compounds. The drugs and investigational agents used in this study are listed on Table 1. All of the agents used, including staurosporine (NSC755774) and gemcitabine (NSC613327), were obtained from the Developmental Therapeutics Program, NCI. FDA-approved anticancer drugs are available from the NCI at http://dtp.nci.nih.gov/branches/dscb/oncology_drugset_explanation.html. Drugs and investigational agents were >95% pure by proton nuclear magnetic resonance (NMR) and liquid chromatography/mass spectrometry (LC/MS). Stock solutions were prepared at 400x in DMSO, stored at -70 degrees C, and diluted in fresh medium prior to their use. The final concentration of DMSO in cell culture wells never exceeded 0.25% (v/v). The FDA-approved anticancer drug set is available from the Developmental Therapeutics Program at https://dtp.cancer.gov/organization/dscb/obtaining/available_plates.htm. All drugs and investigational agents were tested over a range starting from a high concentration at or near the clinical Cmax and decreasing in half-log increments. If the clinical Cmax for an agent had not been determined, the highest concentration tested was 10 microM.
Cell Lines. The patient-derived cancer cell (PDC) lines: 292921-168-R-J2-PDC, K24384-001-R-PDC, and 521955-158-R2-J5-PDC pancreatic carcinomas, 556581-035-R-J1 ovarian carcinoma, 324938-238-R-J1-PDC, 855422-203-R-J1-PDC and 883617-216-R-J1-PDC urothelial bladder carcinomas, 743489-274-T-PDC renal cell carcinoma, 138582-R-J1 Merkel cell tumor, K60290-347-R-J1 and K57222-313-R-J1-PDC glioblastomas, 653999-131-R-J2-PDC, LG0703-F948-PDC, and 349418-098-R-PDC non-small cell lung carcinomas, 885512-296-R-J2-PDC, 171881-019-R-J1-PDC breast carcinomas and 186277-243-T-J2-PDC and 233499-124-R-J2-PDC colon carcinomas were obtained from the NCI Patient-Derived Models Repository (PDMR, https://pdmr.cancer.gov). The established cell lines NCI/ADR-RES (RRID:CVCL_14520 and OVCAR-5 (RRID:CVCL_1628) ovarian carcinomas, 786-O (RRID:CVCL_1051) and A498 (RRID:CVCL_A498) renal cell carcinoma, NCI-H211 (ATCC, cat. CRL-5824; RRID:CVCL_1529), NCI-H196 (ATCC, cat. CRL-5823, RRID:CVCL_1509), SW 1271 (ATCC, cat. CRL-2177, RRID:CVCL_1716) and NCI-H1876 (ATCC, cat. CRL-5902, RRID:CVCL_1503) small cell lung carcinomas, MDA-MB-231 (RRID:CVCL_0062) and MDA-MB-468 (RRID:CVCL_0419)breast carcinomas (10-12). Pooled donor human umbilical vein endothelial cells (HUVEC, Lonza, cat. CC-2519) and human mesenchymal stem cells (hMSC, Lonza, cat. PT-2501) were purchased from Lonza (Walkersville, MD).
Cell Culture. All cells were maintained in an incubator at 37 degrees C and 5% CO2 with 95% humidity. The PDC lines were cultured according to standard operating procedures established by the NCI PDMR (https://pdmr.cancer.gov). Briefly all PDCs were thawed and cultured in Matrigel-coated flasks prepared with a working solution of 1X Ham's F-12 nutrient mix, without supplementation (Invitrogen, Waltham, MA, cat. 11765054), 100 U/mL penicillin-streptomycin (Invitrogen, cat. 15140122), and 2.5% Matrigel (Corning Inc., Corning, NY, cat. 354248) for the first three passages. […]

The mark [1] stands for this setting: curve of first compound, second compound 0.1 µM.
[2] abbreviates: curve of first compound, second compound 0.316 µM.
Where [3] appears, read: curve of first compound, second compound 1 µM.
Setting [4] is: curve of first compound, second compound 3.16 µM.
Setting [5] is: curve of first compound, second compound 10 µM.

The IC50 is the concentration at which inhibition is half-maximal. One may read the viability, T/C as the result in the treated group divided by that in the control group, in per cent. Turning to `NS(=O)(=O)OCC1CC(n2ccc3c(NC4CCc5ccccc54)ncnc32)CC1O` (centres undefined) + NC1CCC(NC2CC2c2ccccc2)CC1, the IC50 was 285 nM under setting [1]; 280 nM under setting [2]; 244 nM under setting [3]; 169 nM under setting [4]; 48.6 nM under setting [5]. In addition, the viability, T/C reads like this: (second compound 0.1 µM, first compound 0.00949 µM) 136%; (second compound 0.1 µM, first compound 0.03 µM) 117%; (second compound 0.1 µM, first compound 0.0949 µM) 78.1%; (second compound 0.1 µM, first compound 0.3 µM) 46.6%; (second compound 0.1 µM, first compound 0.949 µM) 42.7%; (second compound 0.1 µM, first compound 3 µM) 39.7%. Also, the viability, T/C (second compound 0.316 µM, first compound 0.00949 µM) is 135%; the viability, T/C (second compound 0.316 µM, first compound 0.03 µM) was 116%; the viability, T/C (second compound 0.316 µM, first compound 0.0949 µM) was 77%; the viability, T/C (second compound 0.316 µM, first compound 0.3 µM) is 47.6%; the viability, T/C (second compound 0.316 µM, first compound 0.949 µM) was 40.3%; the viability, T/C (second compound 0.316 µM, first compound 3 µM) was 38.7%. Further, the viability, T/C runs as follows: (second compound 1 µM, first compound 0.00949 µM) 124%; (second compound 1 µM, first compound 0.03 µM) 107%; (second compound 1 µM, first compound 0.0949 µM) 73.4%; (second compound 1 µM, first compound 0.3 µM) 42.2%; (second compound 1 µM, first compound 0.949 µM) 40.6%; (second compound 1 µM, first compound 3 µM) 36.8%. Moreover, the viability, T/C is 100% (second compound 3.16 µM, first compound 0.00949 µM); 87.2% (second compound 3.16 µM, first compound 0.03 µM); 59.7% (second compound 3.16 µM, first compound 0.0949 µM); 40.2% (second compound 3.16 µM, first compound 0.3 µM); 33.4% (second compound 3.16 µM, first compound 0.949 µM); 31.3% (second compound 3.16 µM, first compound 3 µM). In addition, the viability, T/C (second compound 10 µM, first compound 0.00949 µM) was 69.7%; the viability, T/C (second compound 10 µM, first compound 0.03 µM) was 56.8%; the viability, T/C (second compound 10 µM, first compound 0.0949 µM) is 40.4%; the viability, T/C (second compound 10 µM, first compound 0.3 µM) is 32.7%; the viability, T/C (second compound 10 µM, first compound 0.949 µM) is 28.1%; the viability, T/C (second compound 10 µM, first compound 3 µM) was 28.8%.
For the compound `COc1ccc([C@@H](O)c2cc(-c3ncnc4cc(N5CCOCC5)ccc34)c(F)cc2Cl)nn1`, the viability, T/C was 93.7% and 82% (compound 0.0316 µM); 76.6% and 85.5% (compound 0.1 µM); 53.9% and 64.1% (compound 0.316 µM); 39.6% and 43.1% (compound 1 µM); 27.3% and 22.8% (compound 3.16 µM); 23.2% and 13.2% (compound 10 µM). In addition, the IC50 (curve of compound) is 449 nM and 700 nM.
On to `CC1COCCN1c1cc(C2(S(C)(=N)=O)CC2)nc(-c2ccnc3[nH]ccc23)n1` (centres undefined) + NC1CC1c1ccc(-c2cccc(O)c2)cc1, for which the IC50 is, setting by setting: under setting [1], 952 nM; under setting [2], 749 nM; under setting [3], 537 nM; under setting [4], 832 nM; under setting [5], 490 nM. Further, the viability, T/C is, setting by setting: (second compound 0.1 µM, first compound 0.0316 µM) 90.7%; (second compound 0.1 µM, first compound 0.1 µM) 90.3%; (second compound 0.1 µM, first compound 0.316 µM) 87%; (second compound 0.1 µM, first compound 1 µM) 47.6%; (second compound 0.1 µM, first compound 3.16 µM) 31.5%; (second compound 0.1 µM, first compound 10 µM) 22.4%. Besides, the viability, T/C reads like this: (second compound 0.316 µM, first compound 0.0316 µM) 71.7%; (second compound 0.316 µM, first compound 0.1 µM) 74.8%; (second compound 0.316 µM, first compound 0.316 µM) 74.5%; (second compound 0.316 µM, first compound 1 µM) 42%; (second compound 0.316 µM, first compound 3.16 µM) 23.3%; (second compound 0.316 µM, first compound 10 µM) 20.3%. Further, the viability, T/C (second compound 1 µM, first compound 0.0316 µM) is 53.6%; the viability, T/C (second compound 1 µM, first compound 0.1 µM) was 68.1%; the viability, T/C (second compound 1 µM, first compound 0.316 µM) was 57.4%; the viability, T/C (second compound 1 µM, first compound 1 µM) is 40.4%; the viability, T/C (second compound 1 µM, first compound 3.16 µM) is 23.9%; the viability, T/C (second compound 1 µM, first compound 10 µM) is 20.9%. Besides, the viability, T/C (second compound 3.16 µM, first compound 0.0316 µM) is 72.4%; the viability, T/C (second compound 3.16 µM, first compound 0.1 µM) is 80.1%; the viability, T/C (second compound 3.16 µM, first compound 0.316 µM) was 72.7%; the viability, T/C (second compound 3.16 µM, first compound 1 µM) is 45.6%; the viability, T/C (second compound 3.16 µM, first compound 3.16 µM) is 23%; the viability, T/C (second compound 3.16 µM, first compound 10 µM) was 21.1%. In addition, the viability, T/C reads like this: (second compound 10 µM, first compound 0.0316 µM) 57.1%; (second compound 10 µM, first compound 0.1 µM) 59.7%; (second compound 10 µM, first compound 0.316 µM) 56.4%; (second compound 10 µM, first compound 1 µM) 40.1%; (second compound 10 µM, first compound 3.16 µM) 23.6%; (second compound 10 µM, first compound 10 µM) 18.7%.
On to `COc1cc(Nc2ncc3c(n2)-c2ccc(Cl)cc2C(c2c(F)cccc2OC)=NC3)ccc1C(=O)O`, for which the viability, T/C by setting is: (compound 0.00316 µM) 78.5% and 52.8%; (compound 0.01 µM) 60.9% and 55.1%; (compound 0.0316 µM) 56.1% and 50.4%; (compound 0.1 µM) 57% and 42.6%; (compound 0.316 µM) 50.3% and 38.8%; (compound 1 µM) 41.5% and 23.2%. The concentration for half-maximal inhibition (IC50) (curve of compound) is 181 nM and 31.7 nM.
